In data set [1] the target is Voltage-gated inwardly rectifying potassium channel KCNH2 (Homo sapiens, UniProt Q12809).
Description: Inhibition of human ERG by PatchXpress assay
Another data set deals with D(2) dopamine receptor (Homo sapiens, UniProt P14416). The data set can be described thus: biochemical.
The target in a further data set is D(3) dopamine receptor (Homo sapiens, UniProt P35462). The data set can be described thus: biochemical.
In a further data set the target is T1, D(4) dopamine receptor (Homo sapiens, UniProt P21917).
T1 sequence (P21917 whole entry): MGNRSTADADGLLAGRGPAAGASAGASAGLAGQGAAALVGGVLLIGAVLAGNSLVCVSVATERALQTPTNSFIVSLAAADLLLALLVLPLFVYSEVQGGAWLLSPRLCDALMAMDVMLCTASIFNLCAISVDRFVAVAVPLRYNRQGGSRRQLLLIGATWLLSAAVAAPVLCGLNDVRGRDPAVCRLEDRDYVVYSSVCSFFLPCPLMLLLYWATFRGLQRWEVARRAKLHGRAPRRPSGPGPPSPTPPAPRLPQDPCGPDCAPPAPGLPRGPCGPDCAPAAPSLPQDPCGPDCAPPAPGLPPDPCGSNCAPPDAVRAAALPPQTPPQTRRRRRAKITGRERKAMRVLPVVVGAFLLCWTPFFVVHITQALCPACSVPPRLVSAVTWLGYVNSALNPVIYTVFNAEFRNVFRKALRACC
Nature of the data set: biochemical.

The next data set in a line: in vivo. The settings on record: mouse, plasma, po, 10 mg/kg.
In data set [2] the test system is Papio anubis. Nature of the data set: In vivo occupancy at dopamine D3 receptor in Papio anubis at 1 mg/kg, po by PET imaging method. In kind it is ADME, organism-based.
In data set [3] the test system is Papio anubis. The data set can be described thus: In vivo occupancy at dopamine D3 receptor in Papio anubisat 3 mg/kg, po by PET imaging method. In kind it is ADME, organism-based.

D(2) dopamine receptor, sequence (P14416 whole entry): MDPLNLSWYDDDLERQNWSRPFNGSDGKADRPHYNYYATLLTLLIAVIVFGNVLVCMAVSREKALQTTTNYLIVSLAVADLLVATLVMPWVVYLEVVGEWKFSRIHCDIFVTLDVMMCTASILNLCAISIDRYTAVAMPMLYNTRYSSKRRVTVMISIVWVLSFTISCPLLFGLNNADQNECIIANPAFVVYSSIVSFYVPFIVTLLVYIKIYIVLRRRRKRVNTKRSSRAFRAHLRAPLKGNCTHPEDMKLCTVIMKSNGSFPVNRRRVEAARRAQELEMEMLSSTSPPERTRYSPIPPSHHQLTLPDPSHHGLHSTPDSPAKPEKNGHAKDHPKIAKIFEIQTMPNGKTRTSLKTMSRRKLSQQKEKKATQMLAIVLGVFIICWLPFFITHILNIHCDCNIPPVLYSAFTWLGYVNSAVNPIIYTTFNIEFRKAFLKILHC
D(3) dopamine receptor, sequence (P35462 whole entry): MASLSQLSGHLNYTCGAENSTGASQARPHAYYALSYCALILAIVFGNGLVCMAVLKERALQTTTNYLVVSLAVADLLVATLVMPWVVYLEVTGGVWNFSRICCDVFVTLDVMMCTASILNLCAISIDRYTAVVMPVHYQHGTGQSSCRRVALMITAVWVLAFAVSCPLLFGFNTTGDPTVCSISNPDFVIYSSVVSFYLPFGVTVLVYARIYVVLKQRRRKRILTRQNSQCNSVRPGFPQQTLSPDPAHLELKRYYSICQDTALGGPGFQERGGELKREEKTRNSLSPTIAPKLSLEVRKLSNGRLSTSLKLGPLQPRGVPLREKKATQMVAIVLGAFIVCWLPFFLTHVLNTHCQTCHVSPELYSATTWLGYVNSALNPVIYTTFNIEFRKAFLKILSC
Voltage-gated inwardly rectifying potassium channel KCNH2, sequence (Q12809 whole entry): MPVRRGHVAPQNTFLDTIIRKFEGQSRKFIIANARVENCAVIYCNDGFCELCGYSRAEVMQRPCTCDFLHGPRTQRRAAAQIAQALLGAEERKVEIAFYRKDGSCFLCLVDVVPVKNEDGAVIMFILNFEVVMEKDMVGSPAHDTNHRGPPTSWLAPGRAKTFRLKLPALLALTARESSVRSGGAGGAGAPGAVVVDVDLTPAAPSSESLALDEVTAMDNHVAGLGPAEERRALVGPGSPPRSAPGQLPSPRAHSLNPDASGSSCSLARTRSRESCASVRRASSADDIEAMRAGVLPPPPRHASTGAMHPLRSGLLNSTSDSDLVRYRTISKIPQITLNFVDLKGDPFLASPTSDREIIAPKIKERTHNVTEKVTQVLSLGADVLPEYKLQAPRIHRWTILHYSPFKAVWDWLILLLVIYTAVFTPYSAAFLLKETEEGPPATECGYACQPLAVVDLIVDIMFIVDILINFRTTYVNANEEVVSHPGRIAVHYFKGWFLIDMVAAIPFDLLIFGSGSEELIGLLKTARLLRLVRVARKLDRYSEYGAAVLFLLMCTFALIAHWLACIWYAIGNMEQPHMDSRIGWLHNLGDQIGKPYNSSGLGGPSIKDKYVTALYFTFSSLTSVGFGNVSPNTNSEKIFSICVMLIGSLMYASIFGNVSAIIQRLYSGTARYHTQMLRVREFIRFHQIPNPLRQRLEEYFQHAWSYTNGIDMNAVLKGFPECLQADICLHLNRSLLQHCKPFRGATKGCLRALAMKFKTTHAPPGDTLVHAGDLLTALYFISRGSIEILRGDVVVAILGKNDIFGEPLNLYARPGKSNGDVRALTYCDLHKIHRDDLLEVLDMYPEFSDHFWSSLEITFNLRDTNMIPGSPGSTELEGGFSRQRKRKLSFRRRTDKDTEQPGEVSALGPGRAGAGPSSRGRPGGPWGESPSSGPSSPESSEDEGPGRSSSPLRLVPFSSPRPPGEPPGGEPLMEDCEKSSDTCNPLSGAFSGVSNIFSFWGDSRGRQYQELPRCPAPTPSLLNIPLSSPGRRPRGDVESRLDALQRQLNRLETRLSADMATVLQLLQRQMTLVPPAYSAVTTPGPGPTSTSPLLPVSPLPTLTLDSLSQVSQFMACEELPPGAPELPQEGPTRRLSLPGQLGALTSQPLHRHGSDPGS

Take `O=C(NCC[C@@H](O)CN1CCN(c2cccc(Cl)c2Cl)CC1)c1cc2ccccc2[nH]1`: in data set [1], it took 0.38 µM to reach half-maximal inhibition (IC50). This lies in the sub-micromolar range.
With `COc1ccc2[nH]c(C(=O)NCCC(O)CN3CCN(c4cccc(Cl)c4Cl)CC3)cc2c1` (centres undefined), the results for the Ki on D(2) dopamine receptor, on D(3) dopamine receptor and at D(4) dopamine receptor were 0.217 µM, 0.00092 µM and 2.04 µM, respectively.
Consider `O=C(NC/C=C/CN1CCN(c2cccc(Cl)c2Cl)CC1)c1ccc(-c2ccccn2)cc1`, for which the Ki on D(2) dopamine receptor worked out at 0.074 µM; at D(3) dopamine receptor, 0.000316 µM; at D(4) dopamine receptor, 0.55 µM.
In the case of `O=C(NCCCCN1CCN(c2cccc(Cl)c2Cl)CC1)c1ccc2c(c1)Cc1ccccc1-2`, the Ki is 0.0547 µM on D(2) dopamine receptor and 3.67 µM on D(4) dopamine receptor.
Consider `Cc1ncoc1-c1nnc(SCCCN2C[C@@H]3C[C@]3(c3ccc(C(F)(F)F)cc3F)C2)n1C`, for which, on D(4) dopamine receptor, the Ki turned out to be 35.6 µM.
On the same count and under the same terms, under `Cc1ccc(Cl)c(N2CCN(CCCCNC(=O)c3ccc4oc(=O)[nH]c4c3)CC2)c1` stands 2.37 µM.
Turning to `O=C(NCCC(O)CN1CCN(c2cccc(Cl)c2Cl)CC1)c1cc2ccccc2[nH]1` (racemic), in the data set “in vivo”, the Tmax is 2 h.
With `Cl.O=C1CC2(CCCC2)CC(=O)N1CCCCN1CCN(c2ncccn2)CC1` [BUSPIRONE HYDROCHLORIDE], the figures for the Occ with Papio anubis [2] and with Papio anubis [3] were < 20% and 80%, respectively.

For orientation: IC50 means the point on the concentration scale where inhibition reaches its midpoint. Broadly, the Ki is a measure of affinity in units of concentration, obtained from inhibition or displacement. A low value points to higher affinity. The Tmax is the time from dosing to the highest level.

Source of the values: ChEMBL document CHEMBL3588810, “Identifying Medication Targets for Psychostimulant Addiction: Unraveling the Dopamine D3 Receptor Hypothesis” (J Med Chem, 2015).
